Reference: ChEMBL document CHEMBL2150920, “Discovery of a potent and selective small molecule hGPR91 antagonist” (Bioorg Med Chem Lett, 2011)

Legend:
[1] = Tmax in Wistar rat at 30 mg/kg, po; type: ADME, organism-based; parameters: dose 30 mg/kg, route oral; conditions: in vivo
[2] = target: 2-oxoglutarate receptor 1 (Homo sapiens, UniProt Q96P68); assay: Antagonist activity at human GPR99 receptor expressed in CHO-K1 cells co-expressing Galpha and Gqi5 G-protein assessed as inhibition of succinate-induced increase in intracellular calcium level at by FLIPR assay; type: functional, cell-based
2-oxoglutarate receptor 1, sequence (Q96P68 whole entry, looked up): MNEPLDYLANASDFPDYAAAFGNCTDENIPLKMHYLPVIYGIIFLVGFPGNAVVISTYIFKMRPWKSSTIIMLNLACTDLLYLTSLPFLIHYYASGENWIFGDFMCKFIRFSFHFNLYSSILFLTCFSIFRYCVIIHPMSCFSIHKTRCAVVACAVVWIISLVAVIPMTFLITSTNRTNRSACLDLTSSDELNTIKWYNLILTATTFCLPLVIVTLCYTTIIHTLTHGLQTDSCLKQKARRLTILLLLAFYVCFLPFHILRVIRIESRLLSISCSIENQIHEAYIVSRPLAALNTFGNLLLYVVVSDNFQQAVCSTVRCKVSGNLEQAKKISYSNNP

[3] = Oral bioavailability in Wistar rat plasma at 30 mg/kg; type: ADME, organism-based
[4] = Plasma concentration in Wistar rat plasma at 50 mg/kg, ip at 2 hrs; type: ADME, organism-based; parameters: dose 50 mg/kg, route intraperitoneal
Succinate receptor 1 [5] = target: T1, Succinate receptor 1 (Rattus norvegicus, UniProt Q6IYF9); assay: Antagonist activity at rat GPR91 receptor expressed in CHO-K1 cells co-expressing Galpha and Gqi5 G-protein assessed as inhibition of succinate-induced increase in intracellular calcium level by FLIPR assay; type: functional, cell-based
T1 sequence (Q6IYF9 whole entry): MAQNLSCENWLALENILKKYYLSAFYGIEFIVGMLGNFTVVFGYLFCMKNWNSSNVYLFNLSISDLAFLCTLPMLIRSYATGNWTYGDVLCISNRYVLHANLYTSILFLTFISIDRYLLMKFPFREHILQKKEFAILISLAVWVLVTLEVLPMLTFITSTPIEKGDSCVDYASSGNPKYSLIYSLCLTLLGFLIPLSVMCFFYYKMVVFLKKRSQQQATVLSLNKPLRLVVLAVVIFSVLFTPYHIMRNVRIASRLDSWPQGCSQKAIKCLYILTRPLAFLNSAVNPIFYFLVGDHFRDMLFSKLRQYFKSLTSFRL

[6] = Cmax in Wistar rat at 50 mg/kg, ip by LC/MS/MS analysis; type: ADME, organism-based; parameters: dose 50 mg/kg, route intraperitoneal; conditions: in vivo
[7] = Tmax in Wistar rat at 50 mg/kg, ip; type: ADME, organism-based; parameters: dose 50 mg/kg, route intraperitoneal; conditions: in vivo
[8] = Cmax in Wistar rat at 30 mg/kg, po by LC/MS/MS analysis; type: ADME, organism-based; parameters: dose 30 mg/kg, route oral; conditions: in vivo
[9] = Plasma concentration in Wistar rat plasma at 50 mg/kg, ip at 4 hrs; type: ADME, organism-based; parameters: dose 50 mg/kg, route intraperitoneal
Liver microsomes = assay: Intrinsic clearance in rat liver microsomes preincubated for 5 mins before addition of NADPH measured after 30 mins by LC/MS/MS analysis; type: ADME, Microsome; conditions: 0.5 h
[10] = Terminal half life in Wistar rat plasma at 30 mg/kg, po; type: ADME, organism-based; parameters: dose 30 mg/kg, route oral; conditions: read-out: beta t1/2 (converted)
[11] = Plasma concentration in Wistar rat plasma at 30 mg/kg, po at 4 hrs; type: ADME, organism-based; parameters: dose 30 mg/kg, route oral
[12] = Terminal half life in Wistar rat at 5 mg/kg, iv; type: ADME, organism-based; parameters: dose 5 mg/kg, route intravenous; conditions: in vivo, read-out: beta t1/2 (converted)
[13] = AUC (0 to 8 hrs) in Wistar rat plasma at 50 mg/kg, ip; type: ADME, organism-based; parameters: time < 8 hr, dose 50 mg/kg, route intraperitoneal
[14] = Volume of distribution at steady state in Wistar rat at 5 mg/kg, iv; type: ADME, organism-based; parameters: dose 5 mg/kg, route intravenous; conditions: in vivo, read-out: Vdss
[15] = Plasma concentration in Wistar rat plasma at 30 mg/kg, po at 2 hrs; type: ADME, organism-based; parameters: dose 30 mg/kg, route oral
[16] = AUC (0 to 24 hrs) in Wistar rat plasma at 30 mg/kg, po; type: ADME, organism-based; parameters: time < 24 hr, dose 30 mg/kg, route oral
[17] = Plasma clearance in Wistar rat at 5 mg/kg, iv; type: ADME, organism-based; parameters: dose 5 mg/kg, route intravenous
[18] = Plasma concentration in Wistar rat plasma at 50 mg/kg, ip at 8 hrs; type: ADME, organism-based; parameters: dose 50 mg/kg, route intraperitoneal
Succinate receptor 1 [19] = target: T2, Succinate receptor 1 (Homo sapiens, UniProt Q9BXA5); assay: Antagonist activity at human GPR91 receptor expressed in CHO-K1 cells co-expressing Galpha and Gqi5 G-protein assessed as inhibition of succinate-induced increase in intracellular calcium level by FLIPR assay; type: functional, cell-based
T2 sequence (Q9BXA5 whole entry): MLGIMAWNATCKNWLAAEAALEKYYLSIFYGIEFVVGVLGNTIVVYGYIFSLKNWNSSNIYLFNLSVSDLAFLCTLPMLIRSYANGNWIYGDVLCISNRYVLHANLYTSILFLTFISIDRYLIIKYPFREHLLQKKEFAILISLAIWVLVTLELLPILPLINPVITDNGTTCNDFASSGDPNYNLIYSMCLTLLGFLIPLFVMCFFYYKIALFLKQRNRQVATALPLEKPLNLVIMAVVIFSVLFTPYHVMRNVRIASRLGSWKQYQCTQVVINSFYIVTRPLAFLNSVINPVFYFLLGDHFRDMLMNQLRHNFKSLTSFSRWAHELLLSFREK

[20] = Cmax in Wistar rat at 5 mg/kg, iv by LC/MS/MS analysis; type: ADME, organism-based; parameters: dose 5 mg/kg, route intravenous; conditions: in vivo
B1 bradykinin receptor = target: T3, B1 bradykinin receptor (Homo sapiens, UniProt P46663); assay: Antagonist activity at human bradykinin B1 receptor expressed in […] cells assessed as inhibition of calcium flux by FLIPR assay; type: functional, cell-based
T3 sequence (P46663 whole entry): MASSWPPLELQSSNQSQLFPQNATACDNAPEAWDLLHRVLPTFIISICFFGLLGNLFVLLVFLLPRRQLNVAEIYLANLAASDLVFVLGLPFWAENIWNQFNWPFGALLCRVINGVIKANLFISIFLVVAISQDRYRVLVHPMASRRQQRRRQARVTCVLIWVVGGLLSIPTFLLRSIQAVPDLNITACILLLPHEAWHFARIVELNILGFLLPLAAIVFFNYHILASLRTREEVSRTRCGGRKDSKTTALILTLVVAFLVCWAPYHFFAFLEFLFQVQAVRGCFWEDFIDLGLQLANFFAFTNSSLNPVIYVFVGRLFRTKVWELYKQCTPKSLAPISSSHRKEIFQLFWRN

[21] = AUC (0 to 24 hrs) in Wistar rat plasma at 100 mg/kg, ip; type: ADME, organism-based; parameters: time < 24 hr, dose 100 mg/kg, route intraperitoneal
[22] = Tmax in Wistar rat at 100 mg/kg, ip; type: ADME, organism-based; parameters: dose 100 mg/kg, route intraperitoneal; conditions: in vivo
[23] = Cmax in Wistar rat at 3 mg/kg, iv by LC/MS/MS analysis; type: ADME, organism-based; parameters: dose 3 mg/kg, route intravenous; conditions: in vivo
[24] = Plasma concentration in Wistar rat plasma at 100 mg/kg, ip at 4 hrs; type: ADME, organism-based; parameters: dose 100 mg/kg, route intraperitoneal
[25] = Plasma concentration in Wistar rat plasma at 100 mg/kg, ip at 8 hrs; type: ADME, organism-based; parameters: dose 100 mg/kg, route intraperitoneal
Kidney = assay: Drug concentration in Wistar rat kidney at 100 mg/kg, ip; type: ADME, organism-based; parameters: dose 100 mg/kg, route intraperitoneal; conditions: in vivo, read-out: Drug uptake
Rattus norvegicus [26] = assay: Hypotensive activity in Wistar rat assessed as inhibition of succinate-induced increase in mean arterial pressure at 100 mg/kg, ip after 2 hrs post dose; type: functional; conditions: Artery, route intraperitoneal
[27] = Plasma protein binding in Wistar rat at 100 mg/kg, ip; type: ADME, organism-based; parameters: dose 100 mg/kg, route intraperitoneal; conditions: read-out: PPB
[28] = Plasma clearance in Wistar rat at 3 mg/kg, iv; type: ADME, organism-based; parameters: dose 3 mg/kg, route intravenous
Rattus norvegicus [29] = assay: Hypotensive activity in Wistar rat assessed as inhibition of succinate-induced increase in mean arterial pressure at 100 mg/kg, ip after 4 hrs post dose; type: functional; conditions: Artery, route intraperitoneal
[30] = Terminal half life in Wistar rat at 3 mg/kg, iv; type: ADME, organism-based; parameters: dose 3 mg/kg, route intravenous; conditions: in vivo, read-out: beta t1/2 (converted)
[31] = Cmax in Wistar rat at 100 mg/kg, ip by LC/MS/MS analysis; type: ADME, organism-based; parameters: dose 100 mg/kg, route intraperitoneal; conditions: in vivo
[32] = Plasma concentration in Wistar rat plasma at 100 mg/kg, ip at 2 hrs; type: ADME, organism-based; parameters: dose 100 mg/kg, route intraperitoneal
[33] = Volume of distribution at steady state in Wistar rat at 3 mg/kg, iv; type: ADME, organism-based; parameters: dose 3 mg/kg, route intravenous; conditions: in vivo, read-out: Vdss

O=C(CCCc1ccc2cccnc2n1)NCc1cc(-c2ccc(F)c(C(F)(F)F)c2)no1
Tmax [1]: 0.5 h | IC50 [2]: > 30000 nM | bioavailability [3]: 26% | concentration at 2 h [4]: 22 µM | IC50 (Succinate receptor 1 [5]): 135 nM | Cmax [6]: 22 µM | Tmax [7]: 2 h | Cmax [8]: 37 µM | concentration at 4 h [9]: 19 µM | Intrinsic clearance (Liver microsomes): 0.12 nmol/min/mg | half-life [10]: 0.9 h | concentration at 4 h [11]: 2.6 µM | half-life [12]: 1.1 h | AUC(0-t) at 8 h [13]: 267 µM·h | Vd [14]: 0.36 L/kg | concentration at 2 h [15]: 11.3 µM | AUC(0-t) at 24 h [16]: 69 µM·h | clearance [17]: 4.7 mL/min/kg | concentration at 8 h [18]: 19 µM | IC50 (Succinate receptor 1 [19]): 35 nM | Cmax [20]: 40 µM

COC(=O)c1c(F)cccc1-c1ccc(CNC(=O)CCCc2ccc3cccnc3n2)c(F)c1
Intrinsic clearance (Liver microsomes): 0.7 nmol/min/mg | IC50 (B1 bradykinin receptor): 2500 nM | IC50 (Succinate receptor 1 [19]): 800 nM

O=C(CCCc1ccc2cccnc2n1)NCc1ccc(-c2cccc(Cl)c2)cc1
IC50 [2]: 7000 nM | IC50 (Succinate receptor 1 [5]): 115 nM | Cmax [6]: 17.8 µM | Tmax [7]: 3.3 h | Intrinsic clearance (Liver microsomes): 0.22 nmol/min/mg | half-life [12]: 1.2 h | AUC(0-t) at 8 h [13]: 119 µM·h | Vd [14]: 0.2 L/kg | clearance [17]: 4.4 mL/min/kg | concentration at 8 h [18]: 15 µM | IC50 (Succinate receptor 1 [19]): 40 nM | Cmax [20]: 82.7 µM

C[C@H](NC(=O)Cc1ccc(-c2ccc3cccnc3n2)cc1)c1ccc(-c2ccc(F)c(C(F)(F)F)c2)cc1
AUC(0-t) at 24 h [21]: 4.3 µM·h | Tmax [22]: 4.9 h | IC50 [2]: > 30000 nM | Cmax [23]: 9.8 µM | concentration at 4 h [24]: 0.33 µM | concentration at 8 h [25]: 0.28 µM | concentration (Kidney): 8 µM | inhibition in vivo at 100 mg/kg (Rattus norvegicus [26]): 59% | fraction unbound [27]: 0.01 | clearance [28]: 36 mL/min/kg | inhibition in vivo at 100 mg/kg (Rattus norvegicus [29]): 76% | half-life [30]: 0.9 h | Intrinsic clearance (Liver microsomes): 0.2 nmol/min/mg | Cmax [31]: 0.4 µM | concentration at 2 h [32]: 0.24 µM | IC50 (Succinate receptor 1 [19]): 7 nM | Vd [33]: 1 L/kg
